Format in all cases: cell-based
In assay [1] the target is T1, PAR2 (HT-29 cells) (Homo sapiens, UniProt P55085).
T1 construct: host or cells: HT-29
T1 sequence (P55085 26-397): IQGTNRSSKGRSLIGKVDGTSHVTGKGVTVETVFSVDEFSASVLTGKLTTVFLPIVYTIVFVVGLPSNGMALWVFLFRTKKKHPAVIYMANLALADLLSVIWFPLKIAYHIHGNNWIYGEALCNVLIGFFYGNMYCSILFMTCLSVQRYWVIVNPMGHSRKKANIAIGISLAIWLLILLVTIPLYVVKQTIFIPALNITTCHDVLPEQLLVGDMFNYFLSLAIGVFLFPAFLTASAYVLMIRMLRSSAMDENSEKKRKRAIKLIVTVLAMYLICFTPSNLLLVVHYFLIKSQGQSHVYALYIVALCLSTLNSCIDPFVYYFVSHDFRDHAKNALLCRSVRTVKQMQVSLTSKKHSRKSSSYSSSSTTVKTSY
In words: Ca FLIPR TETRA assay, ANTAGONIST mode, activator 8 μM SLIGKV. The following applies: HT-29 cells, activator 8 μM SLIGKV; maximal antagonist concentration per Method (A: 0.1, 1 or 2 μM; B: 50 μM). The essentials: (§1)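 HT-29 cells plated overnight at 37 °C in 1% FBS/McCoy's, loaded with calcium 5 dye (45 min 37 °C, 15 min r.t.), then preincubated with compounds 30 min at r.t. before a fixed activator challenge. Intracellular Ca2+ read by FLIPR Tetra; a first read checks compound-alone activation.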

Assay [2] deals with UTP-stimulated Ca2+ response in HT-29 cells. As to the kind of experiment: Ca FLIPR TETRA assay, ANTAGONIST mode, activator 0.6 μM UTP. The following applies: HT-29 cells, activator 0.6 μM UTP. A digest of the protocol: as §1
In assay [3] the target is T1, PAR2 (HT-29 cells). As to the kind of experiment: Ca FLIPR TETRA assay, ANTAGONIST mode, activator 3.1 U/mL trypsin. The following applies: HT-29 cells, activator 3.1 U/mL trypsin; maximal antagonist concentration per Method (A: 0.1, 1 or 2 μM; B: 50 μM). A digest of the protocol:
as §1

Assay [4] relates to Thrombin-stimulated Ca2+ response in HT-29 cells. As to the kind of experiment: Ca FLIPR TETRA assay, ANTAGONIST mode, activator 1 U/mL Thrombin. The following applies: HT-29 cells, activator 1 U/mL Thrombin. A digest of the protocol:
as §1

A word on the IC50: it is the concentration at which inhibition is half-maximal. `CC(C)(C)c1cc(-c2ccc(F)cc2)nc2cc(C(=O)N3CCN(C(=O)C4(C(N)=O)CC4)CC3(C)C)oc12` [Example I-199]: the half-maximal inhibitory concentration (IC50) at PAR2 (HT-29 cells) [1] is 17 nM; in assay [2] (Homo sapiens) it was > 1000 nM; on PAR2 (HT-29 cells) [3] it was 27 nM; in assay [4] (Homo sapiens), > 1000 nM.
For the compound `CC(C)(C)c1cc(-c2ccc(F)cc2)nc2cc(C(=O)N3CCN(S(=O)(=O)C4CC4)CC3(C)C)oc12` [Example I-200], the IC50 is 3 nM at PAR2 (HT-29 cells) [1], > 1000 nM in assay [2] (Homo sapiens), 6 nM at PAR2 (HT-29 cells) [3] and > 1000 nM in assay [4] (Homo sapiens).
For `CC(C)(C)c1cc(-c2ccc(F)cc2)nc2cc(C(=O)N3CCN(S(=O)(=O)c4c[nH]cn4)CC3(C)C)oc12` [Example I-201], the IC50 on PAR2 (HT-29 cells) [1] is 4 nM; in assay [2] (Homo sapiens), > 1000 nM; on PAR2 (HT-29 cells) [3], 7 nM; in assay [4] (Homo sapiens), > 1000 nM.
In the case of `CCC(C)c1cc(-c2ccc(F)cc2)nc2cc(C(=O)N3CCNC(=O)C3(C)C)oc12` (stereo not shown) [Example I-202], the IC50 is 5 nM at PAR2 (HT-29 cells) [1], > 1000 nM in assay [2] (Homo sapiens), 5 nM at PAR2 (HT-29 cells) [3] and > 1000 nM in assay [4] (Homo sapiens).
`CC1(C)C(=O)NCCN1C(=O)c1cc2nc(-c3ccc(F)cc3)cc(C3CCCC3)c2o1` [Example I-203]: the IC50 is 5 nM at PAR2 (HT-29 cells) [1], > 1000 nM in assay [2] (Homo sapiens), 10 nM on PAR2 (HT-29 cells) [3] and > 1000 nM in assay [4] (Homo sapiens).
With `CC1(O)CC(C(=O)C2CCN(C(=O)c3cc4nc(-c5ccc(F)cc5)cc(C5(C#N)CC(F)(F)C5)c4o3)C(C)(C)C2)C1` (stereo not shown) [Example I-204], the IC50 is 6 nM at PAR2 (HT-29 cells) [1], > 1000 nM in assay [2], 4 nM at PAR2 (HT-29 cells) [3] and > 1000 nM in assay [4].
With `CC1(C)CN(C(=O)C2CC(O)(C(F)(F)F)C2)CCN1C(=O)c1cc2nc(-c3ccc(F)cc3)cc(C3(C#N)CC(F)(F)C3)c2o1` (stereo not shown) [Example I-205], the IC50 on PAR2 (HT-29 cells) [1] is 0.6 nM; in assay [2] (Homo sapiens) it was > 1000 nM; on PAR2 (HT-29 cells) [3], 1 nM; in assay [4] (Homo sapiens), > 1000 nM.
`CN1CCN(C(=O)c2cc3nc(-c4ccc(F)cc4)cc(C(C)(C)C)c3o2)C(C)(C)C1=O` [Example I-206]: the IC50 is 4 nM at PAR2 (HT-29 cells) [1], > 1000 nM in assay [2] (Homo sapiens), 4 nM on PAR2 (HT-29 cells) [3] and > 1000 nM in assay [4] (Homo sapiens).
For the compound `CC(C)(C)c1cc(-c2ccc(F)cc2)nc2cc(C(=O)N3CCN(CC(=O)O)C(=O)C3(C)C)oc12` [Example I-209], the IC50 is 220 nM on PAR2 (HT-29 cells) [1], > 1000 nM in assay [2] (Homo sapiens), 370 nM on PAR2 (HT-29 cells) [3] and > 1000 nM in assay [4] (Homo sapiens).
For `COCCN1CCN(C(=O)c2cc3nc(-c4ccc(F)cc4)cc(C(C)(C)C)c3o2)C(C)(C)C1=O` [Example I-210], the IC50 is 2 nM on PAR2 (HT-29 cells) [1], > 1500 nM in assay [2] (Homo sapiens), 3 nM on PAR2 (HT-29 cells) [3] and > 1500 nM in assay [4] (Homo sapiens).
`CC1(C)C(=O)NCCN1C(=O)c1cc2nc(-c3ccc(F)cc3)cc(C3CCCCC3)c2o1` [Example I-211]: the IC50 on PAR2 (HT-29 cells) [1] was 7 nM; in assay [2] (Homo sapiens) it was > 2000 nM; on PAR2 (HT-29 cells) [3], 17 nM; in assay [4] (Homo sapiens), > 2000 nM.
Consider `CC1(C)C(=O)NCCN1C(=O)c1cc2nc(-c3ccc(F)cc3)cc(C3CCC(F)(F)CC3)c2o1` [Example I-212], for which the IC50 on PAR2 (HT-29 cells) [1] was 13 nM; in assay [2] (Homo sapiens), > 2000 nM; on PAR2 (HT-29 cells) [3], 43 nM; in assay [4] (Homo sapiens), > 2000 nM.
For the compound `CC(C)(C)c1cc(-c2ccc(F)cc2)nc2cc(C(=O)N3CCN(C(=O)CCS(C)(=O)=O)CC3(C)C)oc12` [Example I-213], the IC50 on PAR2 (HT-29 cells) [1] was 8 nM; in assay [2] (Homo sapiens), > 2000 nM; at PAR2 (HT-29 cells) [3], 53 nM; in assay [4] (Homo sapiens), > 2000 nM.
`CC(C)(C)c1cc(C2CCCCCC2)nc2cc(C(=O)N3CCNC(=O)C3(C)C)oc12` [Example I-214]: the IC50 at PAR2 (HT-29 cells) [1] was 27 nM; in assay [2] (Homo sapiens) it was > 1000 nM; on PAR2 (HT-29 cells) [3], 26 nM; in assay [4] (Homo sapiens) it was > 1000 nM.
Turning to `CC(C)(C)c1cc(C2CCCC2)nc2cc(C(=O)N3CCNC(=O)C3(C)C)oc12` [Example I-215], the IC50 at PAR2 (HT-29 cells) [1] is 96 nM; in assay [2] (Homo sapiens), > 1000 nM; on PAR2 (HT-29 cells) [3] it was 300 nM; in assay [4] (Homo sapiens), > 1000 nM.
For the compound `CC(C)(C)c1cc(C2CCC(F)(F)CC2)nc2cc(C(=O)N3CCNC(=O)C3(C)C)oc12` [Example I-216], the IC50 at PAR2 (HT-29 cells) [1] was 68 nM; in assay [2] (Homo sapiens), > 1000 nM; on PAR2 (HT-29 cells) [3], 240 nM; in assay [4] (Homo sapiens) it was > 1000 nM.

Values taken from patent US20180057505A1, “BICYCLIC HETEROARYL COMPOUNDS USEFUL AS INHIBITORS OF THE PAR-2 SIGNALING PATHWAY” (VERTEX PHARMACEUTICALS INCORPORATED, priority 2015, published 2018).
